Experimental data as given in article PMC3884847 (Journal of Medicinal Chemistry, 2013).
≈ marks a conversion by molar mass, not a printed value. Where “and” joins values, the source holds several entries; their conditions need not be identical. Equal entries are not always repeated. Where two headings read alike, the source gives them in different places. Values belong to the compound of their own block, whether it stands above or below them.

Experiments:
[1] = human liver microsomes
T. cruzi (Tulahuen TcVI) [2] = test: Initial PK/PD efficacy: 10-day once daily oral dosing of T. cruzi infected mice; assay type: in vivo, Swiss mice; settings: 20 mg/kg oral once daily for up to 10 days
T. cruzi (Tulahuen TcVI) [3] = system: T. cruzi (Tulahuen TcVI)
[4] = system: T. cruzi (Tulahuen strain (Tc VI) transfected with β-galactosidase), amastigote form; test: microbe, parasite or virus in culture; settings: Trypanosoma cruzi
in vitro = settings: rat, L6 IC50 (cytotoxicity), L6 cells
T. cruzi (Tulahuen TcVI) [5] = settings: once daily oral 20 mg/kg for 20 days, cited from earlier work
T. cruzi [6] = settings: twice daily treatment for 30 days, acute and chronic models; cited from earlier work
T. cruzi [7] = settings: cited from earlier work
physchem = settings: pH 2
[8] = 5 mg/kg oral once daily 20 days
[9] = 10 mg/kg oral once daily 20 days
[10] = 20 mg/kg oral once daily 20 days, day 8 = first compound dose
[11] = 20 mg/kg oral once daily 20 days, end after three cycles of immunosuppression
[12] = 20 mg/kg oral once daily 20 days, first day of nontreatment period
[13] = 20 mg/kg oral once daily 20 days, last day of nontreatment period
[14] = 20 mg/kg, PCR of blood, spleen, heart, skeletal muscle, colon
[15] = 100 mg/kg oral once daily 20 days
[16] = 20 mg/kg oral once daily 20 days

predicted human EH ([1]; Table 1): 0.88
SMILES: N#Cc1ccccc1N1CCC(N(c2ccc(C(F)(F)F)cc2)c2cccnc2)CC1 [compound 25]

predicted human EH ([1]; Table 1): 0.69
SMILES: N#Cc1ccc(N(c2cccnc2)C2CCN(c3ccc(C(F)(F)F)cc3)CC2)cc1 [compound 31]

predicted human EH ([1]; Table 2): 0.61
SMILES: O=C([C@H](c1ccc(Cl)cc1)c1cccnc1)N1CCN(c2ccc(C(F)(F)F)cc2)CC1 [(R)-7, 2-(4-Chlorophenyl)-1-{4-[4-(trifluoromethyl)phenyl]piperazin-1-yl}-2-(pyridin-3-yl)ethanone]

predicted human EH ([1]; Table 1): 0.63
SMILES: FC(F)(F)c1ccc(N(c2cncnc2)C2CCN(c3ccc(C(F)(F)F)cn3)CC2)cc1 [compound 34]

SMILES: N#Cc1cccc(N2CCC(NC(c3cccnc3)c3ccc(Cl)cc3F)CC2)c1 (centres unmarked) [compound 48]
parasites cleared from blood during 10-day dosing? (T. cruzi (Tulahuen TcVI) [2]): no

SMILES: Cc1ccccc1CN1CCC(N(c2ccc(C(F)(F)F)cc2)c2cccnc2)CC1 [compound 22]
predicted human EH ([1]; Table 1): 0.87

predicted human EH ([1]; Table 2): 0.70
SMILES: N#Cc1ccc(C(C(=O)N2CCN(c3ccc(C(F)(F)F)cc3)CC2)c2cccnc2)cc1 (centres unmarked) [compound 40]

SMILES: O=C([C@@H](c1ccc(Cl)cc1)c1cccnc1)N1CCN(c2ccc(C(F)(F)F)cc2)CC1 [(S)-7, 2-(4-Chlorophenyl)-1-{4-[4-(trifluoromethyl)phenyl]piperazin-1-yl}-2-(pyridin-3-yl)ethanone]
predicted human EH ([1]; Table 2): 0.53
cure by PCR analyses of organs and blood (T. cruzi (Tulahuen TcVI) [3]; 5 mg/kg daily oral): cure had not been achieved
mouse survival after infection, day 8 (T. cruzi (Tulahuen TcVI) [3]; [8]): 4 of 4
mouse survival after infection, day 28 (T. cruzi (Tulahuen TcVI) [3]; [8]): 4 of 4
mouse survival after infection, day 37 (T. cruzi (Tulahuen TcVI) [3]; [8]): 4 of 4
mouse survival after infection, day 58 (T. cruzi (Tulahuen TcVI) [3]; [8]): 3 out of 4 and 3 of 4
–ve PCR (T. cruzi (Tulahuen TcVI) [3]; 5 mg/kg, PCR of blood and tissues): 0 of 3
mouse survival after infection, day 8 (T. cruzi (Tulahuen TcVI) [3]; [9]): 4 of 4
mouse survival after infection, day 28 (T. cruzi (Tulahuen TcVI) [3]; [9]): 4 of 4
mouse survival after infection, day 37 (T. cruzi (Tulahuen TcVI) [3]; [9]): 4 of 4
mouse survival after infection, day 58 (T. cruzi (Tulahuen TcVI) [3]; [9]): 3 of 4
–ve PCR (T. cruzi (Tulahuen TcVI) [3]; 10 mg/kg, PCR of blood and tissues): 2 out of the 3 and 2 of 3

SMILES: N#Cc1ccc(C(O)(c2ccc(C(F)(F)F)cc2)c2cccnc2)c(F)c1 (centres unmarked) [compound 52]
IC50 [4]: 2 nM
parasites cleared from blood during 10-day dosing? (T. cruzi (Tulahuen TcVI) [2]): yes

SMILES: CC[C@@H]([C@H](C)O)n1ncn(-c2ccc(N3CCN(c4ccc(OC[C@@H]5CO[C@@](Cn6cncn6)(c6ccc(F)cc6F)C5)cc4)CC3)cc2)c1=O [posaconazole, reference compound]
IC50 ([4]; read-out: Tc IC50): 0.7 nM
IC50 (in vitro): > 100000 nM
parasites cleared from blood during 10-day dosing? (T. cruzi (Tulahuen TcVI) [2]): yes
mice cured (T. cruzi (Tulahuen TcVI) [5]; subchronic mouse model): ~60%

SMILES: O=C(C(c1ccc(Cl)cc1)c1cccnc1)N1CCN(c2ccc(C(F)(F)F)cc2)CC1 (racemic) [(rac)-7, 2-(4-Chlorophenyl)-1-{4-[4-(trifluoromethyl)phenyl]piperazin-1-yl}-2-(pyridin-3-yl)ethanone]
predicted human EH ([1]; Table 2): 0.50
cure by PCR analyses of organs and blood (T. cruzi (Tulahuen TcVI) [3]; 20 mg/kg daily oral): no cures were obtained
mouse survival after infection, day 8 (T. cruzi (Tulahuen TcVI) [3]; [10]): 5 of 5
mouse survival after infection, day 58 (T. cruzi (Tulahuen TcVI) [3]; [11]): 3 of 5
mouse survival after infection, day 28 (T. cruzi (Tulahuen TcVI) [3]; [12]): 5 of 5
mouse survival after infection, day 37 (T. cruzi (Tulahuen TcVI) [3]; [13]): 5 out of 5 and 5 of 5
–ve PCR (T. cruzi (Tulahuen TcVI) [3]; [14]): 0 of 3
parasites cleared from blood during 10-day dosing? (T. cruzi (Tulahuen TcVI) [2]): yes

SMILES: N#Cc1ccc(C(c2cccnc2)N2CCC(NC(=O)c3ccccc3)CC2)cc1 (centres unmarked) [compound 47]
parasites cleared from blood during 10-day dosing? (T. cruzi (Tulahuen TcVI) [2]): no

predicted human EH ([1]; Table 2): 0.82
SMILES: CS(=O)(=O)c1ccc(N2CCN(C(=O)C(c3ccc(Cl)cc3)c3cccnc3)CC2)cc1 (centres unmarked) [compound 45]

predicted human EH ([1]; Table 1): 0.91
SMILES: CC(C)(C)CC(=O)N1CCC(N(c2ccc(Cl)cc2)c2cccnc2)CC1 [compound 16]

predicted human EH ([1]; Table 2): 0.46
SMILES: CS(=O)(=O)c1ccc(N2CCN(C(=O)C(c3ccc(C#N)cc3)c3cccnc3)CC2)cc1 (centres unmarked) [compound 46]

SMILES: N#Cc1ccc(C(O)(c2ccc(C(F)(F)F)cc2)c2cccnc2)cc1 (centres unmarked) [compound 2, 4-(hydroxy(pyridin-3-yl)[4-(trifluoromethyl)phenyl]methyl)benzonitrile]
IC50 [4]: 12 nM
parasites cleared from blood during 10-day dosing? (T. cruzi (Tulahuen TcVI) [2]): yes
parasitological cure (T. cruzi (Tulahuen TcVI) [5]; three cycles of immunosuppression): had not achieved a parasitological cure

SMILES: O=C(N[C@@H](Cn1ccnc1)c1ccc(Cl)cc1Cl)c1ccc(-c2nnc(-c3ccccc3)o2)cc1 [VNI]
parasitological cure (T. cruzi [6]): parasitological cure

SMILES: Cc1cc(C(=O)NC2CCN(C(c3ccc(C#N)cc3)c3cccnc3)CC2)n(C)n1 (centres unmarked) [compound 50]
parasites cleared from blood during 10-day dosing? (T. cruzi (Tulahuen TcVI) [2]): no

predicted human EH ([1]; Table 1): 0.65
SMILES: FC(F)(F)c1ccc(N(c2cccnc2)C2CCN(c3ccc(Cl)cc3)CC2)cc1 [compound 27]

SMILES: O=C(Cn1ccnc1[N+](=O)[O-])NCc1ccccc1 [benznidazole, reference compound]
IC50 ([4]; read-out: Tc IC50): 1500 nM
adult patients experiencing serious adverse reactions (T. cruzi [7]): up to 30%
cure rates, acute stage of the infection (T. cruzi [7]; patients): up to 60%
parasites in blood during the immunosuppression phase (T. cruzi (Tulahuen TcVI) [3]; 100 mg/kg oral): re-emergence of parasites in blood
mouse survival after infection, day 8 (T. cruzi (Tulahuen TcVI) [3]; [15]): 5 of 5
mouse survival after infection, day 28 (T. cruzi (Tulahuen TcVI) [3]; [15]): 4 of 5
mouse survival after infection, day 37 (T. cruzi (Tulahuen TcVI) [3]; [15]): 4 of 5
mouse survival after infection, day 58 (T. cruzi (Tulahuen TcVI) [3]; [15]): 0 of 5
IC50 (in vitro): > 100000 nM

SMILES: Cc1ncsc1C(=O)N1CCC(NC(c2ccc(C(F)(F)F)cc2)c2cccnc2)CC1 (centres unmarked) [compound 51]
parasites cleared from blood during 10-day dosing? (T. cruzi (Tulahuen TcVI) [2]): no

SMILES: FC(F)(F)c1ccc(N(c2cccnc2)C2CCN(c3ccc(C(F)(F)F)cn3)CC2)cc1 [compound 6, N-[4-(Trifluoromethyl)phenyl]-N-(1-[5-(trifluoromethyl)pyridin-2-yl]piperidin-4-yl)pyridin-3-amine]
predicted human EH ([1]; Table 1): 0.68
mice microscopically parasite free following three cycles of immunosuppression (T. cruzi (Tulahuen TcVI) [3]; [16]): 3 out of 4
mice parasite free at the end of dosing (T. cruzi (Tulahuen TcVI) [3]; [16]): 4 out of 5
mouse survival after infection, day 8 (T. cruzi (Tulahuen TcVI) [3]; [10]): 5 of 5
mouse survival after infection, day 58 (T. cruzi (Tulahuen TcVI) [3]; [11]): 3 of 5
mouse survival after infection, day 28 (T. cruzi (Tulahuen TcVI) [3]; [12]): 4 of 5
mouse survival after infection, day 37 (T. cruzi (Tulahuen TcVI) [3]; [13]): 4 of 5
–ve PCR (T. cruzi (Tulahuen TcVI) [3]; [14]): 3 of 3
parasitological cure (T. cruzi (Tulahuen TcVI) [3]; lower doses, 5 and 10 mg/kg, data not shown): parasitological cure was not observed
parasites cleared from blood during 10-day dosing? (T. cruzi (Tulahuen TcVI) [2]): yes

SMILES: Fc1cc(Cl)ccc1C(NC1CCN(c2ccc(C(F)(F)F)cc2)CC1)c1cccnc1 (centres unmarked) [compound 5]
parasites cleared from blood during 10-day dosing? (T. cruzi (Tulahuen TcVI) [2]): yes

predicted human EH ([1]; Table 2): 0.56
SMILES: N#Cc1ccc(C(C(=O)N2CCN(c3ccc(C(F)(F)F)cn3)CC2)c2cccnc2)cc1 (centres unmarked) [compound 44]

predicted human EH ([1]; Table 2): 0.77
SMILES: O=C(C(c1ccc(Cl)cc1)c1cccnc1)N1CCN(c2ccc(C(F)(F)F)nc2)CC1 (centres unmarked) [compound 41]

predicted human EH ([1]; Table 2): 0.56
SMILES: N#Cc1ccc(C(C(=O)N2CCN(c3ccc(C(F)(F)F)nc3)CC2)c2cccnc2)cc1 (centres unmarked) [compound 42]

predicted human EH ([1]; Table 2): 0.70
solubility (physchem): 25 µg/mL (≈ 54.2 µM)
SMILES: O=C(C(c1ccc(Cl)cc1)c1cccnc1)N1CCN(c2ccc(C(F)(F)F)cn2)CC1 (centres unmarked) [compound 43]

SMILES: N#Cc1ccc(C(c2cccnc2)N2CCC(NC(=O)c3c(F)cccc3F)CC2)cc1 (centres unmarked) [compound 4]
parasites cleared from blood during 10-day dosing? (T. cruzi (Tulahuen TcVI) [2]): no

predicted human EH ([1]; Table 1): 0.47
SMILES: CS(=O)(=O)c1ccc(N2CCC(N(c3ccc(C#N)cc3)c3cccnc3)CC2)cc1 [compound 33]
